# Patent US20220098197A1, “SALTS OF HETEROCYCLIC COMPOUND AND USE THEREOF” (priority 2019, published 2022)
# Key:
# RAW 264.7 macrophages = experiment: In vitro cytokines assay via ELISA, CSE- and PGD2-stimulated macrophages; type: cell-based, mouse; conditions: CT-NA 10 and 100 μM, p<0.01
# Description: The cigarette smoke generated from 3R4F research grade cigarettes was passed through 50 ml PBS by a vacuum pump. Five cigarettes were used to make smoke that passed 50 ml PBS, and each cigarette was lit for 5 minutes. The control solution was prepared in the absence of cigarettes by using a similar method. After extraction, CSE was stored at −80° C.
# RAW 264.7 macrophages were added to two 12-well plates. Thereafter, the medium of the 12-well plate was replaced with serum-free RPMI-1640 medium, and the macrophages were incubated for 10-12 hrs and then exposed to CT-NA (10 and 100 μM) for 1 hour. One hour later, one 12-well plate was treated with CSE (4%) and the other with PGD2 (10 μM) for 24 hrs. After the treatment, the supernatant of the treated cells was collected to measure the protein levels of TNF-α, IL-1β, IL-6, KC and IL-10 extracellularly secreted using ELISA kits according to the method of the instructions. Subsequently, RNA samples from each treated plate were extracted and reverse-transcripted into cDNA with HiScript5xQRTSuperMix, and then subjected to RT-PCR. RT-PCR was performed with the BioRad CFX96 Touch™ Real-Time PCR Detection System (BioRad, USA) using AceQ® qPCR SYBR Green Master Mix. And the threshold cycle numbers were obtained using BioRad CFX Manager Software. The primers used for RT-PCR reaction were shown in Table 1. β-actin was used as an internal control. The RT-PCR reactions were triplicated and the relative expression of target mRNA was normalized by the respective β-actin.
# RAW264.7 macrophages = experiment: Cell viability (MTT) assay with LPS/PGD2, RAW264.7; type: cell-based, mouse
# Description: The cell lines of RAW 264.7 macrophages and mouse leukemia mononuclear macrophages were purchased from ATCC (Manassas, Va.), and cultured in RPMI-1640 medium containing penicillin (100 U/ml), streptomycin (100 μg/ml) and 10% fetal bovine serum. RAW264.7 macrophage is an excellent model for screening anti-inflammatory drugs and evaluating the inhibitor pathways that stimulated the production of pro-inflammatory cytokines and enzymes. MTT was used to determine the cytotoxicity of CT-NA alone and its combination with PGD2 and LPS on RAW264.7 macrophages and isolated peritoneal macrophages according to the manufacturer's protocol. Briefly, RAW 264.7 macrophages were plated in a 96-well plate at a concentration of 4×10^5 cells/ml for 12 hrs, and then exposed to CT-NA (0-200 μM) at 37° C. for 1 hour. Next, RAW 264.7 macrophages were further exposed to LPS (100 ng/ml) and PGD2 (10 μM) for 24 hrs, and then treated with MTT (5 mg/ml) at 37° C. for 4 hrs. Then, the supernatant of each well was replaced with DMSO (200 μl/well), and the absorbance was measured at 570 nm.
# [1] = test system: NF-κB signalling pathway in the lung of LPS-induced ALI mice; experiment: Western blotting of NF-κB signalling pathway, lung tissue of ALI mice; type: in vivo, Balb/c mice; conditions: CT-NA 10 mg/kg or 30 mg/kg
# Description: Specific pathogen-free (SPF) Balb/c mice (♂/♀; 20-26 g; 8 weeks old) were purchased from Shanghai SIPPR-BK Experimental Animal Co., Ltd. Mice were kept in an isolated ventilated cage in an environment of 40-60% humidity, 24±2° C., and 12 hrs/12 hrs dark-light cycle, and had free access to food and water. The method for preparing the LPS-induced ALI model was simply described as follows. The mice were randomly divided into a control group (12 mice) and an LPS group (48 mice). The LPS group (48 mice) was further divided into four subgroups (12 mice in each subgroup). The unanaesthetized mice in the four subgroups of LPS were intragastrically administered with normal saline (NS), CT-NA at 10 mg/kg or 30 mg/kg, and Dex at 1 mg/kg, respectively. One hour later, the mice were anesthetized with sodium pentobarbital (intraperitoneal injection at 40 mg/kg), and then subjected to intratracheal instillation of NS to control group and LPS (4 mg/kg) to all LPS subgroups. 12 hrs later, the unanaesthetized mice of the LPS group were intragastrically administered with NS, CT-NA at 10 mg/kg or 30 mg/kg, or Dex at 1 mg/kg, respectively (FIG. 16). […] 24 hrs after LPS challenge, the oxygen saturation (SO2) of all mice was measured by a Moor VMS-OXY™ instrument which measured SO2 (%) in the microcirculation at the wavelength range of 500 to 650 nm. […]
compound,measurement,setting,value
CN([C@@H]1CCc2c(CC(=O)[O-])c3cccnc3n2C1)S(=O)(=O)c1ccc(F)cc1.[Na+] [Sodium salt hydrate],"protein levels of IL-1β, IL-6, TNF-α and KC, CSE-stimulated","RAW 264.7 macrophages; 1 h pretreatment, CSE (4%) 24 hrs",inhibited
same,"protein levels of IL-1β, IL-6, TNF-α and KC, PGD2-stimulated","RAW 264.7 macrophages; 1 h pretreatment, PGD2 (10 μM) 24 hrs",inhibited
same,"CSE-induced inhibition of IL-10, protein","RAW 264.7 macrophages; CSE (4%), dose-dependent",reversed
same,"PGD2-induced inhibition of IL-10, protein","RAW 264.7 macrophages; PGD2 (10 μM), dose-dependent",reversed
same,"cytotoxicity (MTT), LPS plus CT-NA",RAW264.7 macrophages; LPS (100 ng/ml) plus CT-NA up to 100 μM,non-toxic
same,"cytotoxicity (MTT), PGD2 plus CT-NA",RAW264.7 macrophages; PGD2 (10 μM) plus CT-NA up to 100 μM,non-toxic
same,degradation of IκBα and P65 induced by LPS,[1],strongly reversed
same,LPS-induced IκBα and P65 activation,[1]; dose-dependent,reduced
